These results are taken from ChEMBL document CHEMBL1124763, “Nucleoside conjugates. 11. Synthesis and antitumor activity of 1-beta-D-arabinofuranosylcytosine and cytidine conjugates of thioether lipids” (1990).

Test [1] deals with Mus musculus. Kind of test: Increase of life span was determined against Ip implanted L1210 / ara-C (I) lymphoid leukemia in mice at a dose of 80 mg/kg per day. In kind it is functional. The conditions noted are these: route intraperitoneal.
Test [2] concerns Mus musculus. Kind of test: Increase of life span was determined against Ip implanted L1210 / 0 lymphoid leukemia in mice at a dose of 200 mg/kg per day after treatment 1. In kind it is functional. The conditions noted are these: L1210/0, ip, route intraperitoneal.
The subject of test [3] is Mus musculus. Description: Increase of life span was determined against Ip implanted L1210 / 0 lymphoid leukemia in mice at a dose of 300 mg/kg per day after treatment 1. Format: functional. The conditions noted are these: L1210/0, ip, route intraperitoneal.
Test [4] relates to Mus musculus. Kind of test: Range of survival days for antitumor activity against Ip implanted L1210 / 0 lymphoid leukemia in mice at a dose of 60 mg/kg per day after treatment 1-5;range is 27->45. Format: functional. The conditions noted are these: route intraperitoneal.
Test [5] concerns Mus musculus. Kind of test: Increase of life span was determined against Ip implanted L1210 / 0 lymphoid leukemia in mice at a dose of 400 mg/kg per day. In kind it is functional. The note with it: L1210/0, ip, route intraperitoneal.
Test [6] has as its system Mus musculus. Kind of test: Range of survival days for antitumor activity against Ip implanted L1210 / ara-C (I) lymphoid leukemia in mice at a dose of 133 mg/kg per day. In kind it is functional. The note with it: route intraperitoneal.
Test [7] has as its system Mus musculus. Description: Range of survival days for antitumor activity against Ip implanted L1210 / ara-C (I) lymphoid leukemia in mice at a dose of 400 mg/kg per day. In kind it is functional. The note with it: route intraperitoneal.
Test [8] relates to Mus musculus. Kind of test: Range of survival days for antitumor activity against Ip implanted L1210 / 0 lymphoid leukemia in mice at a dose of 100 mg/kg per day after treatment 1,5,9;range is 18-29. The note with it: route intraperitoneal. Format: functional.
The test system of test [9] is Mus musculus. Description: Increase of life span was determined against Ip implanted L1210 / 0 lymphoid leukemia in mice at a dose of 400 mg/kg per day after treatment 2. In kind it is functional. The note with it: L1210/0, ip, route intraperitoneal.
The subject of test [10] is Mus musculus. Description: Range of survival days for antitumor activity against Ip implanted L1210 / 0 lymphoid leukemia in mice at a dose of 200 mg/kg per day after treatment 1,15;range is 22-32. In kind it is functional. The note with it: route intraperitoneal.
In test [11] the test system is Mus musculus. Description: Range of survival days for antitumor activity against Ip implanted L1210 / 0 lymphoid leukemia in mice at a dose of 200 mg/kg per day after treatment 5;range is 15-16. Format: functional. The note with it: route intraperitoneal.
Test [12] deals with Mus musculus. Description: Median survival time for antitumor activity against Ip implanted L1210 / ara-C (I) lymphoid leukemia in mice at a dose of 400 mg/kg per day. The note with it: route intraperitoneal.
For test [13], the system named is Mus musculus. Description: Survival time treated for antitumor activity against Ip implanted L1210 / 0 lymphoid leukemia in mice at a dose of 200 mg/kg per day after treatment 5;15/7. The note with it: route intraperitoneal.
The subject of test [14] is Mus musculus. Kind of test: Survival time treated for antitumor activity against Ip implanted L1210 / 0 lymphoid leukemia in mice at a dose of 200 mg/kg per day after treatment 1;32/7. The note with it: route intraperitoneal.
Test [15] relates to Mus musculus. Description: Survival time treated for antitumor activity against Ip implanted L1210 / 0 lymphoid leukemia in mice at a dose of 100 mg/kg per day after treatment 1,8,15,22;24/7. The conditions noted are these: route intraperitoneal.
The subject of test [16] is Mus musculus. Kind of test: Survival time of treated mice for antitumor activity against Ip implanted L1210 / 0 lymphoid leukemia in mice at a dose of 400 mg/kg per day after treatment 2;19.5/7. The conditions noted are these: route intraperitoneal.
For test [17], the system named is Mus musculus. Kind of test: Survival time of treated mice for antitumor activity against Ip implanted L1210 / 0 lymphoid leukemia in mice at a dose of 400 mg/kg per day after treatment 5;14.5/7. The note with it: route intraperitoneal.
Test [18] has as its system Mus musculus. Description: Range of survival days for antitumor activity against Ip implanted L1210 / 0 lymphoid leukemia in mice at a dose of 400 mg/kg per day after treatment 0;range is 14->45. The conditions noted are these: route intraperitoneal.
Test [19] deals with Mus musculus. Kind of test: Survival time of treated mice for antitumor activity against Ip implanted L1210 / 0 lymphoid leukemia in mice at a dose of 100 mg/kg per day after treatment 1,5,9;25/8. The note with it: route intraperitoneal.

Structures are written as SMILES. A value given as a limit tells only on which side of the number the result lay.

By ILS is commonly meant the gain in survival time of treated over control animals, in per cent. In turn, `CCCCCCCCCCCCCCCCCCSCC(COP(=O)(O)OP(=O)(O)OC[C@H]1O[C@@H](n2ccc(N)nc2=O)[C@@H](O)[C@@H]1O)OC(=O)CCCCCCCCCCCCCCC` (mixture of isomers) returned an ILS at 80 mg/kg/day in test [1] greater than 350%. In addition, the ILS at 200 mg/kg/day in test [2] is 357%. In [3], this compound came in with an ILS at 300 mg/kg/day of 371%. Further, the “Range of survival days” value in [4] is greater than 27; in test [8], 18; in test [10] it was 22; in [11] it was 15; in [18], greater than 14. Also, the figures for the increase in lifespan (ILS) at 400 mg/kg/day in test [5] and in [9] were greater than 507% and 179%, respectively. The Range in test [6] and in [7] was greater than 45 throughout. Also, the median survival time in [12] was greater than 45 days. For the same compound, the survival time in [13] stood at 15 days; in [14], 32 days; in [15], 24 days; in test [16], 19.5 days; in test [17], 14.5 days; in [19], 25 days.
